Test results reported in patent US10745401B2, “Condensed lactam derivative” (Sumitomo Dainippon Pharma Co., Ltd., priority 2018, dated 2020).

Legend:
hERG channel = hERG channel (Homo sapiens (Human), UniProt Q12809); experiment: Test 6-1: inhibitory activity for hERG channel (auto patch clamp, Qpatch); format: cell-based; conditions: whole cell auto patch clamp, hERG-CHO cells; read-out: hERG inhibition IC50
In short: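 Whole-cell patch clamp on an automated system using CHO cells stably expressing human hERG (IKr); 15 s pulse interval. Four increasing compound concentrations applied cumulatively; mean peak tail current from last 3 stimulations per concentration used. IC50 from inhibition versus pre-compound current, fitted by Hill equation.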

human 5-HT2A receptor [1] = target: T1, human 5-HT2A receptor (Homo sapiens (Human), UniProt P28223); experiment: Test 3: antagonist activity for human 5-HT2A receptor (aequorin luminescence, CHO-K1 cells); format: cell-based; conditions: CHO-K1 cells, 1 nmol/L 5-HT
Protocol: Test 3: Evaluation of Antagonist Activity for Human 5-HT2A Receptor
Aequorin, Gα16 protein, and each receptor were transiently expressed in CHO-K1 cells (Chinese hamster ovary). […] Each compound dissolved in DMSO was added thereto, and changes in luminescence were measured by FDSS/μCELL functional drug screening system (Hamamatsu Photonics K.K.). Antagonist activity was calculated from the following formula. Antagonist activity (%)=100×{(Luminescence of well in the presence of 1 nmol/L 5-HT−Luminescence of well containing solvent)−(Luminescence of well in the presence of test compound and 1 nmol/L 5-HT−Luminescence of well containing solvent)}/(Luminescence of well in the presence of 1 nmol/L 5-HT−Luminescence of well containing solvent)

[2] = Test 4: metabolic stability test in human hepatic microsome; format: in vitro ADME; conditions: 0.1 mg/mL microsome, 0.1 μmol/L compound, 37° C., 30 minutes
In short: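 LC-MS quantified remaining parent after 30 min, 37° C, in pH 7.4 25 mmol/L phosphate containing 0.1 mg/mL human hepatic microsomes, 3.2 mmol/L NADPH and 0.1 μmol/L test compound. Value given as −LN(residual ratio)/30/0.1, mL/min/mg protein.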

human 5-HT2A receptor [3] = target: T1, human 5-HT2A receptor; experiment: Test 1: binding activity for human 5-HT2A receptor ([3H]Ketanserin, CHO cell membrane fraction)
Protocol: Test 1: Evaluation of Binding Activity for Human 5-HT1A Receptor, Human 5-HT2A Receptor, and Human D2 Receptor
Binding affinity of the present compound for human 5-HT1A receptor, human 5-HT2A receptor, and human D2 receptor was measured by the following procedures.
Each mixture was incubated at room temperature for 60 minutes. Then, the mixture was added quickly on a glassfiber filter plate (Multiscreen FB, Millipore, Inc.) coated with 0.3% aqueous polyethylenimine, and vacuum-filtered. Radioactivity remaining on the filter was measured with a liquid scintillation counter (PerkinElmer, Inc.). Binding inhibition rate was calculated from the following formula.
Ki of each compound was calculated from the following formula. Binding inhibition constant (Ki)=IC50/(1+S/Kd) wherein S is concentration of ligand; Kd is a binding dissociation constant of ligand to membrane, which is calculated from a saturated binding experiment conducted with the same cell membrane. A small Ki value means strong binding ability to a receptor.

human 5-HT1A receptor [4] = target: T2, human 5-HT1A receptor (Homo sapiens (Human), UniProt P08908); experiment: Test 2: agonist activity for human 5-HT1A receptor ([35S]GTPγS binding); format: biochemical; conditions: for Emax at 10 µM: agonist activity in the presence of 10 μM of compound, relative to 100 μmol/L 5-HT; for EC50: [35S]GTPγS binding, concentration at which half the activity of Emax was obtained
In short: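 [35S]GTPγS binding read-out: after 60 min at room temperature with test compound in GDP buffer, human 5-HT1A receptor CHO membranes were vacuum-filtered and retained radioactivity scintillation-counted. Agonist activity calculated by formula.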

human D2 receptor = human D2 receptor (Homo sapiens (Human), UniProt P14416); experiment: Test 1: binding activity for human D2 receptor ([3H]Spiperone, CHO cell membrane fraction); conditions: human D2 receptor, [3H]Spiperone
In short: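 Compound displacement of [3H]ketanserin at 5-HT2A or [3H]spiperone at D2 was measured in CHO membrane fractions after 60 min at room temperature, with filtration and scintillation counting. IC50 was converted to Ki by Cheng–Prusoff using ligand concentration and Kd from saturation binding.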

human 5-HT1A receptor [5] = target: T2, human 5-HT1A receptor; experiment: Test 1: binding activity for human 5-HT1A receptor ([3H]8-OH-DPAT, CHO cell membrane fraction)
In short: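 Membranes incubated with [3H]8-OH-DPAT and compound for 60 min at room temperature, then filtered on polyethylenimine-coated glass-fibre plates and counted by liquid scintillation. IC50 from Hill analysis; Ki = IC50/(1+S/Kd), Kd from saturation binding on the same membranes.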

T1 sequence (P28223 whole entry): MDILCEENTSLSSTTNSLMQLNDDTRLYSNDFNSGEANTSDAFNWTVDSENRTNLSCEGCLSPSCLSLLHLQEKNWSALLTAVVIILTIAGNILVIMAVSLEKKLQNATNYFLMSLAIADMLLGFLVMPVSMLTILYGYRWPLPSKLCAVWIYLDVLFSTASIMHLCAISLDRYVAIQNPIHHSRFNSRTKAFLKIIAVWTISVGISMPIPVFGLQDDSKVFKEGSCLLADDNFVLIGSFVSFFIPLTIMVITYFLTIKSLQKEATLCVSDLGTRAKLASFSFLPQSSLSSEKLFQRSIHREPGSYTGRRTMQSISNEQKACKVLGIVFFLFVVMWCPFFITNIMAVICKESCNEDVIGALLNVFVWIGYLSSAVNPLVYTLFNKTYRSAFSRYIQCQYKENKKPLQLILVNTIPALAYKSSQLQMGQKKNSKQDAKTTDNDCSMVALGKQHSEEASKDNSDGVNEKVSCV
Sequence of human D2 receptor (P14416 whole entry): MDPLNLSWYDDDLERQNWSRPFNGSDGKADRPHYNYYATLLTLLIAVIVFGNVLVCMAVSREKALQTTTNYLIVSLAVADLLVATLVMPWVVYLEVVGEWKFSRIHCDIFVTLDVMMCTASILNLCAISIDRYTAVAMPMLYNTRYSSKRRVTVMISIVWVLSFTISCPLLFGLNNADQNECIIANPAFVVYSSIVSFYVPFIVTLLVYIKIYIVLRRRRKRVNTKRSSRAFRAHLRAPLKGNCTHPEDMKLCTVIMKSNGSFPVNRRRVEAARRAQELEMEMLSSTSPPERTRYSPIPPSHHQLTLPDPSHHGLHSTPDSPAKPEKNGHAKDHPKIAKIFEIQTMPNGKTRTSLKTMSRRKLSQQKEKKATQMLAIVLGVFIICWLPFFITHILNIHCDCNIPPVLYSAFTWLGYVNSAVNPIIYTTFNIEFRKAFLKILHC
Sequence of hERG channel (Q12809 whole entry): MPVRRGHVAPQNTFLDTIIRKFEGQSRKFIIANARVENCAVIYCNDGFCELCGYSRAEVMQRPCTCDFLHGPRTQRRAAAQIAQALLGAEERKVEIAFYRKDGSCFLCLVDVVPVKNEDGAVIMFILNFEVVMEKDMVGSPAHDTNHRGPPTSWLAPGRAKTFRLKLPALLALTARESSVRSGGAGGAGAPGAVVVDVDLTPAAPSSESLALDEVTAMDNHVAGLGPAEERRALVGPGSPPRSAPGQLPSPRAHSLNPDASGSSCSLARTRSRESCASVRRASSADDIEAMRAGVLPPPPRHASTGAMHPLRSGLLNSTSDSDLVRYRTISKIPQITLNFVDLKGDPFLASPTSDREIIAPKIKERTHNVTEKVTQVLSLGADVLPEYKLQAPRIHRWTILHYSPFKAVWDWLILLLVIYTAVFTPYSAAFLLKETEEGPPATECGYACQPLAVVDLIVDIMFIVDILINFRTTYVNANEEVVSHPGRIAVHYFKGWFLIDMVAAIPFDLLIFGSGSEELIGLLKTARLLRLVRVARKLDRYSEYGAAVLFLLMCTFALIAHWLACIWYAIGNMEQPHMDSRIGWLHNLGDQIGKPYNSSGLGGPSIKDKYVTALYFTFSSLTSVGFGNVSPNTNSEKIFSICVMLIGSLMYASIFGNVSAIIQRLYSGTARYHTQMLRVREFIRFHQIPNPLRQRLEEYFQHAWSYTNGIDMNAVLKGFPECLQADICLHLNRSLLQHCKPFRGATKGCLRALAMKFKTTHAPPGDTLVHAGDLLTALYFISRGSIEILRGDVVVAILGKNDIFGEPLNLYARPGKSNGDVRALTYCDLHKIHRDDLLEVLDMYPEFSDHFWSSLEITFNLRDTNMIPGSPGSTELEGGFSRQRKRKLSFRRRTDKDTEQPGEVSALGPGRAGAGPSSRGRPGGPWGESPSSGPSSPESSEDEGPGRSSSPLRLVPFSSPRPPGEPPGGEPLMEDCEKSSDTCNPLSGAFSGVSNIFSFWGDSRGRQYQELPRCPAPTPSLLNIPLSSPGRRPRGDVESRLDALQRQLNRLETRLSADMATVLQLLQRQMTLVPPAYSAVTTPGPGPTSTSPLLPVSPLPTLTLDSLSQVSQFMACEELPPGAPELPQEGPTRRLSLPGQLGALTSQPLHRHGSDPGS
T2 sequence (P08908 whole entry): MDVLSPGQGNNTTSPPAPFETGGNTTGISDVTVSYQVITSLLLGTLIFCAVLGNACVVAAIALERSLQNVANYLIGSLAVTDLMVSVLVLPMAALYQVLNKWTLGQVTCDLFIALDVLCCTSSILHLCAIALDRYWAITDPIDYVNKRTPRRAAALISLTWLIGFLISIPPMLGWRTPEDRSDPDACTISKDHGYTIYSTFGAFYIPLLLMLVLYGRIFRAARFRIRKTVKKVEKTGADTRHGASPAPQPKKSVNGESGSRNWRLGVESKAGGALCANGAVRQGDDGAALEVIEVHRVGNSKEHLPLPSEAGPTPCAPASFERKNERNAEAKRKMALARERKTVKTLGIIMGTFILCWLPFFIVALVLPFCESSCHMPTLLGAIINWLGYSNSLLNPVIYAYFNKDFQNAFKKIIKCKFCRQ

EC50 (human 5-HT1A receptor [4]) [nM]	Ki (human D2 receptor) [nM]	Ki (human 5-HT1A receptor [5]) [nM]	SMILES	IC50 (hERG channel) [nM]	IC50 (human 5-HT2A receptor [1]) [nM]	Metabolic stability in human hepatic microsome [2] [mL/min/mg protein]	Ki (human 5-HT2A receptor [3]) [nM]	Emax at 10 µM (human 5-HT1A receptor [4]) [%]	IC50 (human 5-HT2A receptor [1]; aequorin luminescence) [nM]
–	–	–	O=C1c2ncccc2CCN1CCN1CCC(c2noc3cc(F)ccc23)CC1 [Example 4]	400	9.95	0.011	2.4	–	–
–	–	–	Cc1cc2c(C3CCN(CCN4CCc5cccnc5C4=O)CC3)noc2cc1F [Example 6]	2200	651	0.061	68	31	–
–	–	–	O=C1c2ncccc2CCN1CCN1CCN(c2nsc3ccccc23)CC1 [Example 7]	5200	7.83	0.041	2.63	55	–
–	–	–	O=C1c2cccnc2CCN1CCN1CCN(c2nsc3ccccc23)CC1 [Example 9]	2300	–	0.100	2.24	43	–
–	–	–	O=c1c2cnccc2ccn1CCN1CCC(c2noc3ccccc23)CC1 [Example 13]	–	71	<0.01	8.4	–	–
–	–	–	O=C1c2ncccc2CCC1CCN1CCN(c2noc3ccccc23)CC1 (stereo not shown) [Example 23]	1900	7.29	0.109	6	55	–
–	–	–	O=C1c2ncccc2CCC1CCN1CCN(c2nsc3ccccc23)CC1 (stereo not shown) [Example 25]	400	5.54	0.398	3.01	57	–
–	–	–	O=C1c2ncccc2CCN1CCN1CCC(c2nsc3ccccc23)CC1 [Example 26]	800	4.49	<0.01	1.92	50	–
–	–	–	Cn1ncc2c1CCCC(CCN1CCC(c3noc4ccccc34)CC1)C2=O (stereo not shown) [Example 30]	900	43	0.065	0.76	42	–
–	–	–	Cn1ncc2c1CCCC(CCN1CCN(c3nsc4ccccc34)CC1)C2=O (stereo not shown) [Example 31]	1200	2.71	0.305	0.47	40	–
–	–	–	Cc1noc2c1C(=O)N(CCN1CCN(c3nsc4ccccc34)CC1)CC2 [Example 34]	2500	8	0.124	0.7	54	–
–	–	–	Cc1noc2c1C(=O)N(CCN1CCN(c3nsc4ccccc34)CC1)CCC2 [Example 40]	1800	8.7	0.278	4.86	60	–
–	–	–	Cc1nc2c(o1)C(=O)N(CCN1CCN(c3nsc4ccccc34)CC1)CC2 [Example 45]	7000	27	0.032	3.1	65	–
–	–	–	Cc1nc2c(o1)C(=O)N(CCN1CCN(c3nsc4ccccc34)CC1)CCC2 [Example 46]	3700	52	0.018	2.8	58	–
–	–	–	Cc1noc2ccn(CCN3CCN(c4nsc5ccccc45)CC3)c(=O)c12 [Example 53]	5800	8.03	0.436	–	72	–
–	–	–	CCc1nc2c(o1)C(=O)N(CCN1CCC(c3noc4ccccc34)CC1)CC2 [Example 72]	–	72	–	7.8	–	–
–	–	–	Cc1cc2c(cn1)C(=O)N(CCN1CCN(c3nsc4ccccc34)CC1)CC2 [Example 108, 2-{2-[4-(1,2-Benzoisothiazol-3-yl)piperazin-1-yl]ethyl}-6-methyl-3,4-dihydro-2,7-naphthyridin-1(2H)-one]	2800	7.5	0.119	–	71	–
–	–	–	O=C1c2ncccc2CCN1CCN1CCN(c2noc3cc(Cl)ccc23)CC1 [Example 124]	–	–	–	77	–	120
–	–	–	O=C1c2ncccc2CCN1CCN1CCC(c2noc3cc(F)ccc23)CC1 [Example 125]	< 300	–	<0.05	0.27	–	7.15
–	–	–	Cc1cc2c(cn1)C(=O)N(CCN1CC=C(c3noc4ccccc34)CC1)CC2 [Example 152]	–	–	–	11.4	–	82.7
30.6	248	5.1	COc1ncc2c(n1)CCN(CCN1CCC(c3noc4ccccc34)CC1)C2=O [Example 176]	1000	–	<0.05	–	40	–
–	237	5.63	COc1ncc2c(n1)CCN(CCN1CCN(c3nsc4ccccc34)CC1)C2=O [Example 177]	3700	–	0.095	–	36	–
308	> 10000	21.9	Cc1ccc2c(n1)C(=O)N(CCN1CCN(c3noc4ccccc34)CC1)CC2 [Example 183]	> 3000	–	<0.05	–	44	–
82.6	703	7.85	O=C1c2nc(F)ccc2CCN1CCN1CCC(c2noc3ccccc23)CC1 [Example 188, 7-{2-[4-(1,2-Benzoisoxazol-3-yl)piperidin-1-yl]ethyl}-2-fluoro-6,7-dihydro-1,7-naphthyridin-8(5H)-one]	1900	–	<0.05	–	53	–
4260	286	817	O=C1c2nc[nH]c2CCN1CCN1CCC(c2noc3ccccc23)CC1 [Example 191, 5-{2-[4-(1,2-Benzoisoxazol-3-yl)piperidin-1-yl]ethyl}-6,7-dihydro[1,3]imidazolo[4,5-c]pyridin-4(5H)-one]	2600	–	<0.05	–	14	–
7670	219	200	O=C1c2c(Br)n[nH]c2CCN1CCN1CCC(c2noc3ccccc23)CC1 [Example 192, 5-{2-[4-(1,2-Benzoisoxazol-3-yl)piperidin-1-yl]ethyl}-3-bromo-1,5,6,7-tetrahydro-4H-pyrazolo[4,3-c]pyridin-4-one]	700	–	<0.05	–	11	–

SMILES	EC50 (human 5-HT1A receptor [4]) [nM]	Ki (human D2 receptor) [nM]	Ki (human 5-HT1A receptor [5]) [nM]	IC50 (hERG channel) [nM]	IC50 (human 5-HT2A receptor [1]) [nM]	Metabolic stability in human hepatic microsome [2] [mL/min/mg protein]	Ki (human 5-HT2A receptor [3]) [nM]	Emax at 10 µM (human 5-HT1A receptor [4]) [%]	IC50 (human 5-HT2A receptor [1]; aequorin luminescence) [nM]
O=C1c2c(Br)nn(Br)c2CCN1CCN1CCN(c2nsc3ccccc23)CC1 [Example 69]	33.9	360	10.4	–	–	–	1	45	–
O=C1c2ncccc2CCN1CCN1CCN(c2noc3cc(F)ccc23)CC1 [Example 123]	186	–	162	3900	–	<0.05	–	71	22.9
Cc1nc2c(o1)C(=O)N(CCN1CCN(c3noc4ccccc34)CC1)CC2 [Example 178]	–	> 10000	–	–	–	–	179	–	2020
